Assay results from patent US20260347370A1, “SALT TYPE AND CRYSTAL FORM OF THIENOPYRIMIDINONE DERIVATIVE” (CMS RESEARCH & DEVELOPMENT PTE. LTD., priority 2022, published 2026).

What was measured:
[1] = Solid stability testing of the crystal form B (influencing factors: high temperature, high humidity, light; accelerated 40 °C/75% RH; long-term 25 °C/60% RH); assay type: physicochemical
Text: Influencing factor testing: unless otherwise specified, each sample was placed in an open weighing bottle, which was placed in the corresponding storage container to investigate the stability at the time points of 5 and 10 days. The photostability testing complied with the requirements of ICH Q1B: the illuminated sample was exposed to visible light and ultraviolet light; storage conditions: the sample was illuminated at 5000±500 lux (visible light) and 90 μw/cm^2 (UV) for 5 days and 10 days. The total illumination received by the sample after 10 days was not less than 1.2×10^6 Lux·h, and the near-ultraviolet energy was not less than 200 w·h/m^2. The illuminated sample was placed in a clean weighing bottle, and spread out into a single layer without being covered by anything. The weighing bottle was uncovered and placed in an illumination box for illumination. The control sample was packaged in the same way as the illuminated sample, but the weighing bottle was covered with aluminum film. Long-term and accelerated testing: each sample was placed in a double-layer LDPE bag, respectively, and each layer of the LDPE bag was sealed with a buckle. Then, the sample was placed in an aluminum foil bag, which was heat-sealed. The sample was placed for 1, 2 and 3 months in the accelerated testing, and placed for 3 months under the long-term condition. XRPD analysis was performed on all the stability samples to test the changes in the crystal forms.
25 mg of a sample was taken, weighed accurately, and placed in a 10 mL volumetric flask. 6 mL of acetonitrile was added and the sample was dissolved by ultrasound. The mixture was cooled to room temperature, and water was added to the scale marker. The mixture was shaken well, and the sample was dissolved to give a solution with a concentration of approximately 2.5 mg/mL. The liquid phase was used for sample injection analysis. The test results were compared with the initial test results on day 0.

[2] = Hygroscopicity study by dynamic vapor sorption (DVS); assay type: physicochemical; conditions: 25 °C/80% RH
Procedure: Instrument model: SMS DVS intrinsic plus dynamic vapor sorption instrument. Detailed DVS parameters are as follows: • Temperature: 25 °C; • Protective gas and flow rate: nitrogen, 200 mL/min; • dm/dt=0.002%/min; • RH (%) test gradient: 10% RH; • Minimum dm/dt balance time: 10 min; • Maximum balance time: 180 min; • Range of RH (%) test gradient: 0% to 95%.
The classification of hygroscopicity evaluation is as follows: • Absorbing enough water and forming a liquid: deliquescence; ΔW %≥15%: very hygroscopic; 15%>ΔW %≥2%: hygroscopic; 2%>ΔW %≥0.2%: slightly hygroscopic; ΔW %<0.2%: Not or almost not hygroscopic. ΔW % represents the weight increase of a test sample by moisture absorption at 25±1 °C and 80±2% RH.
The test was performed using SMS DVS intrinsic plus dynamic vapor sorption instrument.

[3] = Solid stability testing of the crystal form B (influencing factors: high temperature, high humidity, light; accelerated 40 °C/75% RH; long-term 25 °C/60% RH); assay type: physicochemical; remark: listed apart in the source
[4] = Pharmacokinetic evaluation in male CD-1 mice (IV 0.5 mg/kg, PO 2 mg/kg), plasma LC/MS/MS; assay type: in vivo
Procedure: Assay purpose: The pharmacokinetic properties of the compounds of the present disclosure were studied in mice.
Each assay compound was mixed with DMAC respectively, and vortexed for 2 minutes. The solution of the assay compound in DMAC was mixed and vortexed for 2 minutes to prepare a clear solution of 10 mg/mL. 0.0600 mL of 10 mg/mL solution was added to 0.300 mL of Solutol, and the mixture was vortexed for 2 minutes. Then 2.400 mL of normal saline was added, and the mixture was vortexed for 2 minutes to obtain a clear solution of 0.2 mg/mL, which was used for administration in PO group. 0.500 mL of the solution for administration in PO group was vortexed for 2 minutes, and 0.0500 mL of DMAC was added. The mixture was vortexed for 2 minutes, and then 0.0500 mL of solutol was added. The mixture was vortexed for 2 minutes, and finally 0.400 mL of normal saline was added. The mixture was vortexed for two minutes to give a clear solution of 0.1 mg/mL, which was filtered through a microporous membrane to give a solution for administration in injection (IV) group.
Four male CD-1 mice were divided into two groups. The animals in the first group were administered intravenously once at a dose of 0.5 mg/kg, wherein the vehicle was 10% DMAC/10% Solutol/80% normal saline, and the administration volume was 5 mL/kg. The animals in the second group were administered orally 2 mg/kg of the assay compound by oral gavage, wherein the oral vehicle was 10% DMAC/10% Solutol/80% normal saline, and the oral volume was 10 mL/kg. Whole blood was collected at 0.033 (IV injection only), 0.083, 0.25, 0.5, 1, 2, 4 and 12 hours post-dose. The whole blood was centrifuged at 3200 g at 2-8 °C for 10 min to obtain plasma. The concentration of the assay compound in plasma was determined by LC/MS/MS method, and the pharmacokinetic parameters were calculated by Phoenix WinNonlin software.
The parameters have the following meanings: IV: intravenous injection; PO: oral administration; C0: initial plasma concentration; Cmax: maximum drug concentration in the systemic circulation; Tmax: time required to reach Cmax; T1/2: half-life; Vdss: apparent volume of distribution; Cl: clearance rate; AUC0-last: area under the plasma drug concentration-time curve.

[5] = High humidity (25 °C, 92.5% relative humidity, uncovered), 10 days
[6] = High temperature (60 °C, uncovered), 10 days
[7] = Long term (25 °C, 60% relative humidity, uncovered), 3 months
[8] = Visible light + UV (ICH conditions), total illumination of visible light reaching 1200000 Lux·h, UV reaching 200 w·h/m^2
[9] = Accelerated (40 °C, 75% relative humidity, uncovered), 1 month
[10] = Accelerated (40 °C, 75% relative humidity, uncovered), 2 months
[11] = Accelerated (40 °C, 75% relative humidity, uncovered), 3 months
[12] = Light-shielding control group, placed with visible light + UV light, wrapped with tin foil

What does the source list for `O=C(O)c1scc2[nH]c(=O)n(-c3cc4c(cc3F)OCCCOc3ccc(F)c(F)c3CO4)c(=O)c12`?
Purity (HPLC) ([1]; 0 day (initial)): 99.4%; Crystal form [1, 5]: form B; Purity (HPLC) [1, 5]: 99.4%; Crystal form [1, 6]: form B; Purity (HPLC) [1, 6]: 99.4%; Purity (HPLC) [1, 7]: 99.4%; Crystal form [1, 8]: form B; Purity (HPLC) [1, 8]: 99.4%; change of purity and crystalline form ([1]; all stability conditions (high temperature, high humidity, illumination, long-term and accelerated)): did not change significantly; hygroscopicity [2]: slightly hygroscopic (2%>ΔW %≥0.2%); ΔW % ([2]; DVS): 0.535%; Crystal form ([3]; 0 day (initial)): form B; Crystal form [3, 9]: form B; Purity (HPLC) [3, 9]: 99.4%; Crystal form [3, 10]: form B; Purity (HPLC) [3, 10]: 99.4%; Crystal form [3, 11]: form B; Purity (HPLC) [3, 11]: 99.4%; Crystal form [3, 12]: form B; Purity (HPLC) [3, 12]: 99.4%; Crystal form [3, 7]: form B; chemical stability ([3]; conclusion in words, all stability conditions): good chemical stability

For `O=C(O)c1scc2[nH]c(=O)n(-c3cc4c(cc3F)OCCCOc3ccc(F)c(F)c3CO4)c(=O)c12` [Compound of formula (I)], which AUC0-last ([4]; IV (0.5 mg/kg)) is on record?
The AUC0-last was 48.307 µM·h.

And the “Cl (clearance rate)” value ([4]; IV (0.5 mg/kg))?
Its value is 0.332 mL/min/kg.

What about the T1/2 ([4]; IV (0.5 mg/kg)) of the same compound?
The T1/2 was 5.66 h.

What about the “Vdss (apparent volume of distribution)” value ([4]; IV (0.5 mg/kg)) of the same compound?
The value was 0.159 L/kg.

And the C0 ([4]; IV (0.5 mg/kg), read-out: C0 (initial plasma concentration))?
Its C0 is 13.5 µM.

And the AUC0-last ([4]; PO (2 mg/kg))?
The AUC0-last was 142.824 µM·h.

What about the Bioavailability ([4]; PO (2 mg/kg)) of the same compound?
Its Bioavailability is 95.3%.

What about the Cmax ([4]; PO (2 mg/kg)) of the same compound?
The Cmax was 25.8 µM.

And the T1/2 ([4]; PO (2 mg/kg))?
Its T1/2 is 5.03 h.

What about the Tmax ([4]; PO (2 mg/kg)) of the same compound?
Its Tmax is 0.500 h.
